Test results taken from the NIST ThermoML archive (doi:10.1016/j.jct.2019.105880).
± gives the expanded uncertainty stated by the source.

Assay: wn = mass fraction of the nth substance listed
Details: 100 kPa, Liquid; for viscosity: Falling or rolling sphere viscometry; for speed of sound: Frequency=3 MHz, Single path-length method; for mass density: Vibrating tube method

CCCO [propan-1-ol] + O
Details | mass density [kg/m3] | speed of sound [m/s] | viscosity [mPa·s]
288.15 K, w1 = 0.1 | 985.245 ± 1.4 | 1564.4 ± 3.1 | 1.82 ± 0.14
288.15 K, w1 = 0.2 | 971.452 ± 1.6 | 1587.4 ± 2.5 | 2.723 ± 0.18
288.15 K, w1 = 0.3 | 954.251 ± 1.9 | 1533.5 ± 5.5 | 3.208 ± 0.2
288.15 K, w1 = 0.4 | 934.617 ± 2 | 1485.7 ± 5.2 | 3.575 ± 0.22
293.15 K, w1 = 0.1 | 983.869 ± 1.5 | 1570.1 ± 2.3 | 1.545 ± 0.12
293.15 K, w1 = 0.2 | 969.02 ± 1.7 | 1581.6 ± 3 | 2.232 ± 0.14
293.15 K, w1 = 0.3 | 950.883 ± 1.9 | 1526.5 ± 5.6 | 2.618 ± 0.16
293.15 K, w1 = 0.4 | 931.255 ± 2 | 1477.2 ± 5.3 | 2.92 ± 0.18
298.15 K, w1 = 0.1 | 982.336 ± 1.6 | 1574.3 ± 2 | 1.333 ± 0.095
298.15 K, w1 = 0.2 | 966.338 ± 1.8 | 1575.5 ± 3.4 | 1.852 ± 0.12
298.15 K, w1 = 0.3 | 948.039 ± 2 | 1519.6 ± 5.7 | 2.174 ± 0.14
298.15 K, w1 = 0.4 | 927.818 ± 2.1 | 1468 ± 5.5 | 2.436 ± 0.15
303.15 K, w1 = 0.1 | 980.428 ± 1.7 | 1577.4 ± 2.2 | 1.156 ± 0.081
303.15 K, w1 = 0.2 | 963.667 ± 1.8 | 1569.5 ± 3.8 | 1.567 ± 0.1
303.15 K, w1 = 0.3 | 945.132 ± 2 | 1512.6 ± 5.9 | 1.841 ± 0.11
303.15 K, w1 = 0.4 | 924.386 ± 2.1 | 1458.6 ± 5.8 | 2.056 ± 0.13

CC(C)O [propan-2-ol] + O
Details | mass density, w1 = 0.1 [kg/m3] | mass density, w1 = 0.2 [kg/m3] | mass density, w1 = 0.3 [kg/m3] | speed of sound, w1 = 0.1 [m/s] | speed of sound, w1 = 0.2 [m/s] | speed of sound, w1 = 0.3 [m/s] | viscosity, w1 = 0.1 [mPa·s] | viscosity, w1 = 0.2 [mPa·s] | viscosity, w1 = 0.3 [mPa·s]
288.15 K | 983.401 ± 1.2 | 971.675 ± 1.5 | 954.62 ± 1.8 | 1573.7 ± 6.8 | 1638.6 ± 2.1 | 1586.9 ± 5.5 | 1.936 ± 0.16 | 3.087 ± 0.21 | 4.014 ± 0.26
293.15 K | 982.158 ± 1.3 | 969.345 ± 1.6 | 951.686 ± 1.8 | 1578.9 ± 5.5 | 1629.4 ± 2 | 1574.7 ± 5.8 | 1.633 ± 0.13 | 2.485 ± 0.17 | 3.172 ± 0.21
298.15 K | 980.642 ± 1.4 | 966.771 ± 1.7 | 948.106 ± 1.9 | 1582.9 ± 4.3 | 1620.2 ± 2.3 | 1562.8 ± 6.1 | 1.395 ± 0.11 | 2.045 ± 0.14 | 2.555 ± 0.16
303.15 K | 978.882 ± 1.5 | 964.199 ± 1.7 | 945.121 ± 1.9 | 1585.7 ± 3.2 | 1611 ± 2.7 | 1549.6 ± 6.5 | 1.208 ± 0.089 | 1.71 ± 0.11 | 2.105 ± 0.13
